What is called IC50 is the concentration needed to halve the response being measured. Lower therefore signals greater potency.

The target of series [1] is T1, norepinephrine transporter (NET) (Homo sapiens, UniProt P23975).
T1 construct: expressed in transfected cells
The experiment in a line: Inhibition of human transporter in stable epithelial cell lines (NET). The class given is cell-based. Particulars: average of two replicates (n=2). On the procedure: Compounds were tested for their ability to inhibit the reuptake of the monoamine neurotransmitters dopamine (DA), noradrenaline (NA), and serotonin (5-HT) in synaptosomes as described in WO 97/16451 (NeuroSearch A/S). In addition, the compounds were tested in human epithelial cells expressing human transporters for 5-HT (SERT), dopamine (DAT), and norepinephrine (NET).
The results are the average of two-replicates per experiment (n=2).

Series [2] in a line: Phase I ascending single oral dose study: safety and tolerability. The series is classed as in vivo, human. On the procedure: Study design. The study was a Phase I, randomised, double-blind, placebo-controlled, ascending single oral dose, safety, tolerability, pharmacokinetic (PK) and pharmacodynamics (PD) study of IP2015 in healthy male subjects.
Each subject received one oral dose of IP2015 or matched placebo. […] The dose level was to be escalated to a maximum of 0.05 mg in Cohort 2 and a maximum of 0.2 mg in Cohort 3. The doses in the remaining five cohorts were to be determined based on the dose escalation criteria.
The randomisation schemes were generated by a statistician using SAS PROC Plan.
The doses used in each cohort were as follows: • Cohort 1 - 0.01 mg • Cohort 2 - 0.05 mg • Cohort 3 - 0.2 mg • Cohort 4 - 0.6 mg • Cohort 5 - 1.8 mg • Cohort 6 - 5.4 mg • Cohort 7 - 16.2 mg • Cohort 8 - 10 mg
Evaluation. The study evaluated the clinical safety data from adverse event (AE) reporting, 12-lead electrocardiogram (ECG), cardiac telemetry, vital signs (standing and supine blood pressure (BP), heart rate (HR), oral temperature and clinical laboratory evaluations (chemistry, haematology, urinalysis) and physical examinations in healthy male subjects.

T1 sequence (P23975 whole entry): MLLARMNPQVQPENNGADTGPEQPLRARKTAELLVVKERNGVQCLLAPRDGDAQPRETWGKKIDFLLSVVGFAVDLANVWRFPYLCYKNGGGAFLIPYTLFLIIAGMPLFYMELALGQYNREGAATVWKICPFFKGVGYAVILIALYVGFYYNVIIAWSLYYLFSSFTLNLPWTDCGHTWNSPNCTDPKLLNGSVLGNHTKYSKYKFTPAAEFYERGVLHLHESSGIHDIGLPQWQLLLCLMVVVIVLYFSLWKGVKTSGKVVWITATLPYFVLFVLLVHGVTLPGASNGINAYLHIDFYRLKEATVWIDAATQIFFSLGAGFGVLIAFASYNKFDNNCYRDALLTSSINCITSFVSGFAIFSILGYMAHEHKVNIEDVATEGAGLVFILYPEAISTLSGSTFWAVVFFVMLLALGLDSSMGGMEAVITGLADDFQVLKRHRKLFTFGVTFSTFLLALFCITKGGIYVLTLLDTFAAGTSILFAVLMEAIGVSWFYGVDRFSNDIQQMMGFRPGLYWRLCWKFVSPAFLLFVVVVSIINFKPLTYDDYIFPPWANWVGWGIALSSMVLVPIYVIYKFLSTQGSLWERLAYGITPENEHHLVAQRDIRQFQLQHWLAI

In series [1], `COc1cc2ccc(O[C@@H]3C[C@H]4CC[C@@H](C3)N4)cc2oc1=O` [IP2015, exo-7-[(8-azabicyclo[3.2.1]octan-3-yl)oxy]-3-methoxy-chromen-2-one] showed an IC50 of 95 nM. Besides, in series [2] (0.01 mg to 10 mg dose range), the “incidence of TEAEs” value is recorded as “relatively low”; the “mean ECG parameters” value is “no significant treatment- or dose-related trends”; the “vital sign values, mean or individual subject” value is given as “no significant treatment- or dose-related trends”. In series [2] (16.2 mg), the “incidence of side effects compared to the 0.01 mg to 10 mg dose range” value is recorded as “increased” and the “subjects with sustained tachycardia for several hours” value is 2 subjects. In addition, the “subjects reporting at least one TEAE” value in series [2] (16.2 mg dose group (all subjects of the group)) worked out at 4 subjects. For the same compound, the standing pulse rate result in series [2] (16.2 mg, 2, 3, 4, 6, 8, 10 and 12 hours postdose) is reported as “increases from baseline”. For the same compound, in series [2] (16.2 mg, 6, 8 and 10 hours postdose), the supine pulse rate result is on record as “increases from baseline”. The “heart rate (ECG)” value in series [2] (16.2 mg, 8 and 12 hours postdose) is on record as “increases from baseline”. For the same compound, the “subjects experiencing TEAEs” value in series [2] (of the 40 subjects who received IP2015, all dose groups) was 16 subjects. Further, in series [2] (the 40 subjects who received IP2015, all dose groups), the “total TEAEs” value came out at 32 TEAEs.

The record behind these values is EP4608400B1, “COMPOUND FOR TREATMENT OF PAIN” (Initiator Pharma A/S, priority 2022, dated 2024).
